Tested on: ES cells
Assay: Examination of cell survival (MTT assay)
Assay type: cell-based, mouse
Details: for relative cell survival rate: control = 100
Description: The following steps were conducted in order to culture ES cells: • (1) preparing a stem cell medium: DMEM+15% heat-inactivated FBS+NEAA (0.1 mM)+L-glutamine (2 mM)+β-mercaptoethanol (0.2 mM); • (2) preparing a BP-containing solution: dissolving BP into DMSO to form a BP-containing solution (100 mg/ml), and storing the solution at −20° C.; • (3) adding different amounts of the BP-containing solution in step (2) into the stem cell medium in step (1) to form different BP-containing mediums, wherein the amount of BP were about 5, 10, 20 or 40 μg per milliliter of the stem cell medium respectively (i.e. the experimental group mediums: BP5, BP10, BP20 and BP40); and • (4) using the BP-containing medium of in step (3) to culture a ES cell (retrieved from the embryos in the blastula stage of 129sv/J mice) at 37° C., 5% CO2 and 95% humidity on the feeder cells provided by Example 1.
In this example, 3-(4,5-dimethylthiazol-2-yl)-2,5-diphenyl tetrazolium bromide (MTT) was used to determine if the cell survival rate of stem cells will be influenced when BP was served as a substitute for LIF.
MTT is a water-soluble tetrazolium salt which can react in the mitochondrial respiratory chain in living cells, to metabolize and reduce the tetrazolium bromide shown in the structure of MTT and to form an water-insoluble purple crystal formazan under the reaction of succinate dehydrogenase (SDH) and cytochrome c (cyt c). The amount of the produced crystal is directly proportional to the number of living cells (because the SDH will disappear from dead cells and the MTT cannot be reduced). Furthermore, mitochondrium is an organelle in cells most sensitive to the environment, and thus, the MTT assay could serve as a marker of the survival rate of cells treated by a drug.
An experimental group medium (BP5, BP10, BP20 or BP40) and a control group medium (without BP) were added respectively into a 96-well micro-culture plate to culture ES cells with an initial density of 5×10^3 per well for 24 to 72 hours. Then, 10 μl of 0.5 mg/ml MTT (Sigma) was added into each well and the cells were incubated in an incubator at 37° C. and 5% CO2 for 2 to 4 hours. The medium was removed, and 100 μl of DMSO was added into each well and maintained at 37° C. for 10 minutes. The absorbances of the samples were measured at a wavelength of 570 nm to obtain the data of the experimental group (with BP) and control group (without BP). The absorbance of control group was served as a reference to calculate the relative cell survival rate of each experimental group.

For CCCC=C1OC(=O)c2ccccc21 [BP, n-butylidenephthalide], the “relative cell survival rate” value (BP5 medium (about 5 μg BP/ml), 24 hours) was 95.212, the “relative cell survival rate” value (BP5 medium (about 5 μg BP/ml), 72 hours) was 99.816 and the “relative cell survival rate” value (BP10 medium (about 10 μg BP/ml), 24 hours) was 98.092. The “relative cell survival rate” value (BP10 medium (about 10 μg BP/ml), 72 hours) was 93.848, the “relative cell survival rate” value (BP20 medium (about 20 μg BP/ml), 24 hours) was 95.076 and the “relative cell survival rate” value (BP20 medium (about 20 μg BP/ml), 72 hours) was 92.399. The “relative cell survival rate” value (BP40 medium (about 40 μg BP/ml), 24 hours) was 97.550, the “relative cell survival rate” value (BP40 medium (about 40 μg BP/ml), 72 hours) was 90.128 and the “survival rate of stem cells” value (addition of BP into the ES cell medium, result in words) was “will not affect the survival rate of stem cells”.

From patent US20150056702A1, “METHOD AND KIT FOR CULTURING STEM CELLS” (China Medical University, priority 2013, published 2015)
